Measurements from patent US20250100982A1, “PLEUROMUTILIN DERIVATIVE WITH THIAZOLE SIDE CHAIN AND PREPARATION AND APPLICATION” (SOUTH CHINA AGRICULTURAL UNIVERSITY, priority 2023, published 2025).
Converted amounts (≈) assume the structure as drawn.

Legend:
[1] = test system: Mycoplasma gallisepticum 352; assay: In vitro inhibition experiment of mycoplasma activity, broth dilution MIC; type: cell-based; conditions: for MIC, Mycoplasma gallisepticum 352: 37° C.
Protocol: (§1) The broth dilution method was adopted in the experiment. The tiamulin was selected as the control drug in the experiment.
(§2) The strains used in the experiment were Mycoplasma gallisepticum 352, 352-tiamulin resistant strain, and M47.
(§3) Preparation of the target compound stock solution: the compound was dissolved with 1 mL of DMSO, then fixed in volume with a 250 mL volumetric flask and fully shaken to obtain the stock solution (5120 μg/mL).
(§4) The stock solution was diluted in petri dishes with a doubling dilution method. Each petri dish contained 2 ml of medical solution, and the medical solution was diluted to 20 ml, so that the final concentrations of the compound were […] respectively.
(§5) 15 sterile 2 mL EP tubes were placed in each row. 0.9 mL of liquid medium was added to the first tube, and 0.5 mL of liquid medium was added to the other tubes respectively. 0.1 mL of prepared medical solution was added to the first tube and fully mixed. Then, 0.5 mL of medical solution was added to the second tube, and so on. Finally, 0.5 mL of medical solution was absorbed and discarded.

[2] = test system: Mycoplasma gallisepticum M47; assay: as above; type: cell-based; conditions: clinical isolate; for MIC, Mycoplasma gallisepticum M47: 37° C.
Protocol: as §1, §2, §3, §4, §5

[3] = test system: methicillin-resistant Staphylococcus aureus ATCC43300; assay: microbe, parasite or virus in culture; type: cell-based; conditions: 24 h; for MIC, MRSA ATCC 43300: broth dilution, 37° C.
From the text: (§6) A broth dilution method was used in the experiment. Tiamulin was selected as a control drug in the experiment. The tiamulin is a pleuromutilin antibiotic as well as one of the top ten veterinary antibiotics in the world.
(§7) The strains used in the experiment were methicillin-resistant Staphylococcus aureus ATCC43300, Staphylococcus aureus ATCC29213, clinical Staphylococcus aureus AD3, clinical S. aureus 144, Mycoplasma gallisepticum 352, 352 tiamulin induced drug-resistant bacteria and clinical isolates M47.
(§8) Preparation of target compound stock solution: 6.4 mg of target compound was accurately weighed, placed in a 5 mL volumetric flask, and dissolved with 0.25 mL of DMSO and 0.25 mL of Tween 80; then 4.5 mL of distilled water was added for fixing the volume; the solution was fully shaken to obtain a stock solution (1280 μg/mL); and the stock solution was filtered with a 0.22 μm filter membrane and sterilized, subpackaged into small tubes, and stored at −20° C. The control drug tiamulin was also prepared according to the above method.
(§9) Preparation of bacterial solution: the strains that were well preserved at −20° C. were taken out and inoculated on a new MH plate, and after culture at 37° C. for 24 h, a single colony was selected and inoculated in MH medium for culturing again for 24 h. The selected single colony was transferred to sterile normal saline and the turbidity was adjusted to 0.6 McF. At this moment, the concentration of the bacterial solution was 10^6 CFU/mL.
(§10) Preparation of MIC plate: a sterile 96-well plate was taken; 180 μL of MH broth medium was added to the first well, 100 μL of MH broth medium was added to the second well to the 12th well; 20 μL of target compound solution with a concentration of 1280 μg/mL was added to the first well; after even mixing, 100 μL of solution was added to the second well, and mixed well; 100 μL of solution was absorbed to the third well, and so on; and 100 μL of solution was absorbed to the 12th well and discarded. At this moment, the drug concentrations in the wells were: 128, 64, 32, 16, 8, 4, 2, 1, 0.5, 0.25, 0.125, and 0.06 μg/mL, and three parallel groups were made for the drugs of the concentrations.
(§11) Inoculation of bacterial solution: 100 μL of bacterial solution was added into the first well to the 12th well, so that the final bacterial solution concentration in each well was about 5×10^5 CFU/mL, and the drug concentrations in the first well to the 12th well were 64, 32, 16, 8, 4, 2, 1, 0.5, 0.25, 0.125, 0.06 and 0.03 μg/mL respectively. […] When a single jumping hole occurred in the microbroth dilution method, the maximum drug concentration for inhibiting bacteria was recorded, and the experiment shall be repeated if multiple jumping holes occurred.

[4] = test system: Staphylococcus aureus ATCC29213; assay: In vitro antibacterial experiment, broth dilution MIC; type: cell-based; conditions: 24 h; for MIC, S. aureus ATCC 29213: 37° C.
From the text: as §6, §7, §8, §9, §10, §11

[5] = test system: clinical Staphylococcus aureus AD3; assay: as above; type: cell-based; conditions: 37° C., 24 h, clinical isolate
From the text: as §6, §7, §8, §9, §10, §11

clinical S. aureus 144 = assay: as above; type: cell-based, Staphylococcus aureus; conditions: 37° C., 24 h, clinical isolate
From the text: as §6, §7, §8, §9, §10, §11

[6] = test system: Mycoplasma gallisepticum 352-tiamulin resistant strain; assay: microbe, parasite or virus in culture; type: cell-based; conditions: for MIC, Mycoplasma gallisepticum 352-tiamulin resistant strain: broth dilution, 37° C.
Protocol: as §1, §2, §3, §4, §5

| Structure (SMILES) | MIC, Mycoplasma gallisepticum 352 [1] [µg/mL] | MIC, Mycoplasma gallisepticum M47 [2] [µg/mL] | MIC, MRSA ATCC 43300 [3] [µg/mL] | MIC, S. aureus ATCC 29213 [4] [µg/mL] | MIC, S. aureus AD3 [5] [µg/mL] | MIC, S. aureus 144 (clinical S. aureus 144) [µg/mL] | MIC, Mycoplasma gallisepticum 352-tiamulin resistant strain [6] [µg/mL] | MIC ([1]; Mycoplasmoides gallisepticum, 352, 37° C.) [µg/mL] | MIC ([2]; Mycoplasmoides gallisepticum, M47, 37° C.) [µg/mL] | MIC ([3]; Staphylococcus aureus, ATCC 43300 / MRSA, read-out: MIC, MRSA ATCC 43300) [µg/mL] | MIC ([4]; Staphylococcus aureus, ATCC29213, 37° C., read-out: MIC, S. aureus ATCC 29213) [µg/mL] | MIC ([5]; Staphylococcus aureus, read-out: MIC, S. aureus AD3) [µg/mL] | MIC (clinical S. aureus 144; Staphylococcus aureus) [µg/mL] | MIC ([6]; Mycoplasmoides gallisepticum, read-out: MIC, Mycoplasma gallisepticum 352-tiamulin resistant strain) [µg/mL] |
| --- | --- | --- | --- | --- | --- | --- | --- | --- | --- | --- | --- | --- | --- | --- |
| C=CC1(C)CC(OC(=O)CSc2ncc(NC(=O)C3CCCCC3)s2)C2(C)C(C)CCC3(CCC(=O)C32)C(C)C1O (stereo not drawn) [Compound 4] | 0.015 (≈ 0.0249 µM) | 1 (≈ 1.66 µM) | 0.125 (≈ 0.207 µM) | 0.03125 (≈ 0.0518 µM) | 0.0625 (≈ 0.104 µM) | 0.0625 (≈ 0.104 µM) | 0.25 (≈ 0.415 µM) |  |  |  |  |  |  |  |
| C=C[C@]1(C)C[C@@H](OC(=O)CSCCN(CC)CC)[C@]2(C)[C@H](C)CC[C@]3(CCC(=O)[C@H]32)[C@@H](C)[C@@H]1O [Tiamulin, reference compound] |  |  |  |  |  |  |  | ≤ 0.004 | 0.125 (≈ 0.253 µM) | 0.5 (≈ 1.01 µM) | 1 (≈ 2.03 µM) | 1 (≈ 2.03 µM) | 1 (≈ 2.03 µM) | 0.25 (≈ 0.506 µM) |
| C=CC1(C)CC(OC(=O)CSc2ncc(NC(=O)C(C)(C)CC)s2)C2(C)C(C)CCC3(CCC(=O)C32)C(C)C1O (stereo not drawn) [Compound 18] | 0.03 (≈ 0.0508 µM) | 1 (≈ 1.69 µM) | 0.25 (≈ 0.423 µM) | 0.25 (≈ 0.423 µM) | 0.25 (≈ 0.423 µM) | 0.5 (≈ 0.846 µM) | 0.5 (≈ 0.846 µM) |  |  |  |  |  |  |  |
| C=CC1(C)CC(OC(=O)CSc2ncc(NC(=O)C3CCC3)s2)C2(C)C(C)CCC3(CCC(=O)C32)C(C)C1O (stereo not drawn) [Compound 2] | 0.008 (≈ 0.0139 µM) | 0.5 (≈ 0.87 µM) | 0.0625 (≈ 0.109 µM) | 0.125 (≈ 0.217 µM) | 0.125 (≈ 0.217 µM) | 0.25 (≈ 0.435 µM) | 0.25 (≈ 0.435 µM) |  |  |  |  |  |  |  |
| C=CC1(C)CC(OC(=O)CSc2ncc(NC(=O)COC(C)=O)s2)C2(C)C(C)CCC3(CCC(=O)C32)C(C)C1O (stereo not drawn) [Compound 10] | ≤0.004 | 0.03 (≈ 0.0506 µM) | 0.0625 (≈ 0.105 µM) | 0.125 (≈ 0.211 µM) | 0.125 (≈ 0.211 µM) | 0.0625 (≈ 0.105 µM) | 0.03 (≈ 0.0506 µM) |  |  |  |  |  |  |  |
| C=CC1(C)CC(OC(=O)CSc2ncc(NC(=O)C(Cl)(Cl)Cl)s2)C2(C)C(C)CCC3(CCC(=O)C32)C(C)C1O (stereo not drawn) [Compound 23] | 0.125 (≈ 0.196 µM) | 4 (≈ 6.27 µM) | 1 (≈ 1.57 µM) | 2 (≈ 3.13 µM) | 1 (≈ 1.57 µM) | 2 (≈ 3.13 µM) | 1 (≈ 1.57 µM) |  |  |  |  |  |  |  |
